Experimental data as given in patent US9375519B2, “Bioerodable poly(etheresteramides) and medical article uses” (SurModics, Inc., priority 2012, dated 2016).
Entries after “also recorded” stand apart in the source; their conditions may differ. Counter-ions that a name gives are not always drawn.

Assay: Analysis of monomer degradation in deuterated water by NMR (free phenylalanine)
Type: physicochemical
Conditions: deuterated water at pH 4, 7 or 11, room temperature
Method: Monomers of formula II were evaluated for degradation in water at basic, neutral, and acidic pH conditions.
NMR indicated an increasing presence of free phenylalanine, a degradation byproduct, in solution over time (FIG. 1). […] This is consistent with hydrolysis of the ester bond in the Phe-TEG monomer.
Monomers were placed in deuterated water (adjusted to pH 4, 7, or 11 with DCl or NaOD) in an NMR tube and incubated at room temperature. NMR was used to detect the presence of free phenylalanine, a degradation byproduct, in the aqueous phase (see FIG. 1).

NC(Cc1ccccc1)C(=O)OCCOCCOCCOCCOC(=O)C(N)Cc1ccccc1 (stereo not shown) [Phe-TEG, di-p-toluenesulfonic salt of bis-(phenylalanine)-tetraethylene glycol diester]
degradation of monomer in water (free phenylalanine in solution over time by NMR): showed evidence of degradation; also recorded: larger under basic conditions than neutral or acidic
